{
  "source": "paper PMC9818021",
  "about": "“Targets, Mechanisms and Cytotoxicity of Half-Sandwich Ir(III) Complexes Are Modulated by Structural Modifications on the Benzazole Ancillary Ligand” (Cancers, 2022)",
  "key": {"SW480 cells": {"test_system": "SW480 cells", "test": "Ir cellular uptake by ICP-MS", "type": "cell-based, human", "settings": "2 µM, 24 h", "protocol": "Quantification of Ir cellular uptake by ICP-MS (Inductively coupled plasma-mass spectrometry). Metal accumulation studies were conducted on the SW480 cell line. In these experiments, 3 × 10^5 cells were seeded in 12.5 cm^2 tissue culture flasks in drug-free medium and incubated for 24h at 37 °C in a 5% CO2 humidified atmosphere. Then, cells were treated with 2 µM of the iridium complexes. After 24 h of exposure, cells were washed twice with PBS and harvested. The pellets were resuspended in PBS, and 10 µL were used to count cells. Then, each resuspended pellet was digested in 65% HNO3 for 24 h. Finally, solutions were analyzed in a 7700 ICP-MS (Agilent Technologies, Palo Alto, CA, USA). Data is reported as the mean the standard deviation (n = 3)."}, "cytosolic Ca2+": {"test_system": "cytosolic Ca2+", "test": "Cytosolic calcium (Fluo3/AM)", "type": "cell-based", "settings": "16 µM, after 4 h of incubation", "protocol": "(§1) Specific assays with 1[C,NH] complex were performed according to manufacturer’s instructions using the following reagents from Molecular Probes (Thermo Fisher Scientific): Measurements of ROS: Dihydroethidium (DHE, D11347) and 2′, 7′-dichlorodihydrofluorescein diacetate (H2DCFDA, D399); detection of caspases 3/7: CellEvent Caspase-3/7 Green Detection Reagent (C10423); Cell viability: Live/Dead Cell Imaging Kit (R37601); Analysis of cytosolic calcium concentration: Fluo3/AM (F23915); Analysis of MMP: Tetramethylrhodamine methyl ester perchlorate (TMRM, T668). RT-qPCR’s assays were performed with the following primers/probes from Thermo Fisher Scientific: DCP1A (Hs00218198-m1), FOSB (Hs00171851-m1), EGR1(Hs0015928-m1), ATF3 (Hs00231069-m1), DDIT3 (Hs00358796-g1), PP1R15A (Hs00169585-m1), CHAC1(Hs00225520-m1), MIR9-1 (Hs04231512-s1), ATP1B2 (Hs00155922-m1), BBC3 (Hs00248075-m1), BCL2L11 (Hs00798019-s1), PMAIP1 (Hs00560402-m1), SKP2 (Hs01021864-m1) and HIST1H1B (Hs00271207-s1). RT-qPCR experiments were performed as described."}, "A549-gal cells": {"test_system": "A549-gal cells", "test": "Seahorse XFp Glycolysis Stress Test (ECAR)", "type": "cell-based, human", "settings": "16 µM", "protocol": "Cell culture. Epithelial ovarian carcinoma cells (A2780) that acquired resistance to cisplatin epithelial ovarian carcinoma cells (A2780cis), colon adenocarcinoma cells (SW480) and epithelial lung adenocarcinoma cells (A549) were provided by Sigma Aldrich. A549 and SW480 cells were grown in Dulbecco′s Modified Eagle′s Medium (DMEM), supplemented with 10% Fetal Bovine Serum (FBS) and 1% penicillin, streptomycin and 1% glutamine for A549 and 1% amphotericin B for SW480. The A2780 and A2780cis were grown in RPMI 1640 supplemented with 10% Fetal Bovine Serum (FBS), 1% glutamine and 1% penicillin, streptomycin and amphotericin B. All cells were incubated in a humidified incubator at 37 °C under a 5% CO2 atmosphere and grown in 100 mm culture dishes to approximately 70–80% confluence. For subculturing, cells were detached with Trypsin-EDTA (Sigma). A549-gal were derived from A549 cultured in glucose-free medium supplemented with 10 mM galactose (Sigma) for at least 10 passes.\n(§2) DNA damage was measured using EpiQuik 8-OHdG DNA Damage Quantification Direct Kit (colorimetric) (Fischer, Waltham, MA, USA, P600396); The mitochondrial cytochrome C release was evaluated using the “Millipore’s FlowCellect Cytochrome C Kit (Millipore, FCCH100110)”. Lactate dehydrogenase activity release was measured in the culture medium using Cytotoxicity Detection Kit (Roche Diagnostic, Barcelona, Spain, 11 644 793 001). Protein synthesis was determined using Click-iT Plus O-propargyl-puromycin (OPP) Protein Synthesis Assay Kit (Invitrogen™, Waltham, MA, USA). Measurement of GSH/GSSG was determined with GSH/GSSG-Glo Assay (Promega, V6611). Measurements of OCR and ECAR with Seahorse XFp (Agilent Technologies) were determined using the XFp Cell Mito Stress Test Kit (103010-100) and XFp Glycolysis Stress Test Kit (103017-100). ATP measurement was determined with Cell Titer-Glo Luminescent Cell Viability Assay (Promega, Madison, WI, USA, G7570). Determination of DNA damage using phosphorylated H2AX measurement were performed as previously described. Cardiolipin oxidation using the fluorophore Nonyl Acridine Orange (NAO, Thermo Scientific, A1372) was performed as described. Cell viability was determined by Hoechst inclusion and Propidium iodide (PI) exclusion by standard protocols. TEM analysis were performed as described. Cell cycle analysis by flow cytometry and microarrays analysis were performed as described. Arrays data have been deposited in the ArrayExpress database at EMBL-EBI (www.ebi.ac.uk/arrayexpress) under accession number E-MTAB-860 (10 November 2022)"}, "caspases 3/7": {"test_system": "caspases 3/7", "test": "Caspase 3/7 detection (CellEvent)", "type": "cell-based, human", "settings": "A549, 16 µM, up to 24 h", "protocol": "as §1"}, "A549 cells [1]": {"test_system": "A549 cells", "test": "Cytochrome c release (FlowCellect kit)", "type": "cell-based, human", "settings": "5 h", "protocol": "DNA damage was measured using EpiQuik 8-OHdG DNA Damage Quantification Direct Kit (colorimetric) (Fischer, Waltham, MA, USA, P600396); The mitochondrial cytochrome C release was evaluated using the “Millipore’s FlowCellect Cytochrome C Kit (Millipore, FCCH100110)”. Lactate dehydrogenase activity release was measured in the culture medium using Cytotoxicity Detection Kit (Roche Diagnostic, Barcelona, Spain, 11 644 793 001). Protein synthesis was determined using Click-iT Plus O-propargyl-puromycin (OPP) Protein Synthesis Assay Kit (Invitrogen™, Waltham, MA, USA). Measurement of GSH/GSSG was determined with GSH/GSSG-Glo Assay (Promega, V6611). Measurements of OCR and ECAR with Seahorse XFp (Agilent Technologies) were determined using the XFp Cell Mito Stress Test Kit (103010-100) and XFp Glycolysis Stress Test Kit (103017-100). ATP measurement was determined with Cell Titer-Glo Luminescent Cell Viability Assay (Promega, Madison, WI, USA, G7570). Determination of DNA damage using phosphorylated H2AX measurement were performed as previously described. Cardiolipin oxidation using the fluorophore Nonyl Acridine Orange (NAO, Thermo Scientific, A1372) was performed as described. Cell viability was determined by Hoechst inclusion and Propidium iodide (PI) exclusion by standard protocols. TEM analysis were performed as described. […]"}, "A549 cells [2]": {"test_system": "A549 cells", "test": "Seahorse XFp Cell Mito Stress Test (OCR)", "type": "cell-based, human", "settings": "16 µM, A549, 1 h", "protocol": "as §2"}},
  "data": [
    {"compound": "Cc1c(C)c(C)[c-](C)c1C.[Cl][Ir]1[O]c2ccccc2-c2sc3ccccc3[n+]21", "note": "[8[CO,S], [(η^5-Cp*)IrCl(κ^2-O,N-hpbtz)]]", "values": [
      {"measurement": "Metal accumulation in SW480 cells", "setting": "SW480 cells", "result": "highest accumulation"}
    ]},
    {"compound": "Cc1c(C)c(C)[c-](C)c1C.[Cl][Ir]1[c]2ccccc2-c2[nH]c3ccccc3[n+]21", "note": "[1[C,NH], [(η^5-Cp*)IrCl(κ^2-N,C-pbim)]]", "values": [
      {"measurement": "Cytosolic Ca2+", "setting": "cytosolic Ca2+", "result": "increase in cytosolic Ca^2+"},
      {"measurement": "Acute Response, ECAR, Mean", "setting": "A549-gal cells", "result": 4.17, "unit": "mpH/min"},
      {"measurement": "Glycolysis, ECAR, Mean", "setting": "A549-gal cells", "result": 44.81, "unit": "mpH/min"},
      {"measurement": "Glycolytic Capacity, ECAR, Mean", "setting": "A549-gal cells", "result": 43.97, "unit": "mpH/min"},
      {"measurement": "Glycolytic Reserve %, Mean", "setting": "A549-gal cells", "result": 98.26, "unit": "%"},
      {"measurement": "Glycolytic Reserve, ECAR, Mean", "setting": "A549-gal cells", "result": 2.48, "unit": "mpH/min"},
      {"measurement": "Non-Glycolytic Acidification, ECAR, Mean", "setting": "A549-gal cells", "result": 9.64, "unit": "mpH/min"},
      {"measurement": "Caspase 3/7 activity", "setting": "caspases 3/7", "result": "induced caspase 3/7 activation"},
      {"measurement": "Cytochrome c release", "setting": "A549 cells [1]", "result": "increased Cyt c release"},
      {"measurement": "ATP Production, OCR, Mean", "setting": "A549 cells [2]", "result": 7.77, "unit": "pmol/min"},
      {"measurement": "Basal Respiration, OCR, Mean", "setting": "A549 cells [2]", "result": 57.35, "unit": "pmol/min"},
      {"measurement": "Coupling Efficiency, Mean", "setting": "A549 cells [2]", "result": 13.65},
      {"measurement": "Maximal Respiration, OCR, Mean", "setting": "A549 cells [2]", "result": 47.24, "unit": "pmol/min"},
      {"measurement": "Non-Mitochondrial Oxygen Consumption, OCR, Mean", "setting": "A549 cells [2]", "result": 26.35, "unit": "pmol/min"},
      {"measurement": "Proton Leak, OCR, Mean", "setting": "A549 cells [2]", "result": 49.58, "unit": "pmol/min"},
      {"measurement": "Spare Respiratory Capacity as a %, Mean", "setting": "A549 cells [2]", "result": 80.93, "unit": "%"},
      {"measurement": "Spare Respiratory Capacity, OCR, Mean", "setting": "A549 cells [2]", "result": 0.27, "unit": "pmol/min"}
    ]}
  ]
}
